# Test results: article PMC10613275 (Scientific Reports, 2023)
# Read-outs that look alike come from different tables or passages of the source.
# Tests used:
# HepG2 cells = details: HepG2, 100 µM ref 2; cited from earlier work
# dogs = details: dog, in vivo; cited from earlier work
# Caco-2 cells = experiment: Intestinal absorption, Caco-2 intestinal barrier model in vitro; assay type: in vitro ADME, human; details: lilial 1 mM, 4 h
# [1] = as above; assay type: in vitro ADME, human; details: human
# [2] = design: method as in earlier work; details: human volunteers, cited from earlier work
# CHO-K1 cells = experiment: Cytotoxicity, cell viability (resazurin assay), CHO-K1, with or without S9 mix; details: 1 day
# androgen receptor = experiment: Androgenic activity, transactivation luciferase assay in MDA-kb2; details: 1 nm–100 µM, MDA-kb2
# From the text: Results were expressed as fold induction (FI), i.e. fold increase compared to vehicle control. According to EPA[28], FI of positive control should be above 4 to meet the performance standard.
# [3] = design: method as in PMID 32461162; details: cited from earlier work
# MCF7 cells = details: MCF7 ref 2; cited from earlier work
compound,measurement,setting,value
"CC(C=O)Cc1ccc(C(C)(C)C)cc1 (stereo not drawn) [Lilial, 3-(4-(tert-butyl)phenyl)-2-methylpropanal]",Decrease in cell viability,HepG2 cells,23%
same,"Oral dose that reduced body weight, gave clinical and systemic toxicity",dogs,≥ 200 mg/kg/day
same,Lilial (%) in Caco-2 cells,Caco-2 cells,13.1 ± 5.2%
same,Lilial (%) in apical medium,Caco-2 cells,32.3 ± 2.0%
same,Lilial (%) in basolateral medium,Caco-2 cells,34.1 ± 3.4%
same,Recovery,Caco-2 cells; all compartments,79.5%
same,"recovery at 4 h, 1 mM","[1]; Caco-2, lilial 1 mM, 4 h, all compartments",~80%
same,"Papp at 4 h, 1 mM","[1]; Caco-2, read-out: Papp (apparent permeability coefficient)",21 ×10⁻⁶ cm/s
same,Mean of applied dose detected in urine,"[2]; dermal 6 h, urine within 24 h ref 4",1.4%
same,Topical application recovery,[2]; dermal 6 h ref 4,71 ± 10%
same,Toxic concentration,"CHO-K1 cells; 5 nm–500 µM, without S9",≥ 250 µM
same,Cytotoxicity result after metabolization by the S9 mix,"CHO-K1 cells; up to 500 µM, with S9 mix",no cytotoxicity
same,Androgenic activity (agonist) result,androgen receptor,Non active up to 100 µM
same,Androgenic activity (agonist) result,androgen receptor; listed as lilial,no activity was detected
same,Dermal absorption value,[3]; hydroalcoholic-based fragrances and deodorant/antiperspirant products ref 3,13.5%
same,Dermal absorption value,[3]; oil-in-water-based products ref 3,8.9%
same,Dermal absorption value,[3]; water-in-oil-based products ref 3,10.5%
same,Effect on cell viability,MCF7 cells,no negative effect
